Source: patent publication US20220251141A1, “IMMUNOMODULATORS” (Bristol-Myers Squibb Company, priority 2019, published 2022)
pIC50: −log10 of the molar value. Numbered stars: 1 amine (or outer) side, 2 acyl side, 3 side chain; on linkers, the order of the positions; unused ones are H or OH. Bridge positions count the residues as written; N and C are the ends. Square brackets hold non-standard residues; d marks the D form. Peptide text beside a SMILES is read from it. * marks the point of attachment. Trp(1-CH2CO2Me) = COC(=O)Cn1cc(C[C@H](N)C(=O)O)c2ccccc21; Trp(1-CH2COOH) = N[C@@H](Cc1cn(CC(=O)O)c2ccccc12)C(=O)O; X5 = CN(C)S(=O)(=O)NCC[C@H](N[*:1])C(=O)[*:2]; X4 = CN(C)S(=O)(=O)NC[C@H](N[*:1])C(=O)[*:2]; X15 = CCNC(=S)NCC[C@H](N[*:1])C(=O)[*:2]; X14 = CCNC(=S)NC[C@H](N[*:1])C(=O)[*:2]; Dab(CONH2) = NC(=O)NCC[C@H](N)C(=O)O; X9 = N#CNCC[C@H](N[*:1])C(=O)[*:2]; X8 = N#CNC[C@H](N[*:1])C(=O)[*:2]; Hyp = O=C(O)[C@@H]1C[C@@H](O)CN1; NMeNle = CCCC[C@H](NC)C(=O)O; NMeA = CN[C@@H](C)C(=O)O; Dab = NCC[C@H](N)C(=O)O; Dap = NC[C@H](N)C(=O)O; Boc = CC(C)(C)OC(=O)*; X10 = CC(C)(C)SC(=O)*; Moc = COC(=O)*

target: T1, PD-1/PD-L1 (Homo sapiens, UniProt Q9NZQ7); experiment: PD-1/PD-L1 Homogenous Time-Resolved Fluorescence (HTRF) binding assay; conditions: PD-L1-His 10 nM final, PD-1-Ig 20 nM final; inhibitors pre-incubated with PD-L1-His for 15 m
T1 construct: TVMV protease site linker (C); made in house; host or cells: HEK293T cells
Source text: The ability of the compounds of formula (I) to bind to PD-L1 was investigated using a PD-1/PD-L1 Homogenous Time-Resolved Fluorescence (HTRF) binding assay.
The interaction of PD-1 and PD-L1 can be assessed using soluble, purified preparations of the extracellular domains of the two proteins. The PD-1 and PD-L1 protein extracellular domains were expressed as fusion proteins with detection tags, for PD-1, the tag was the Fc portion of Immunoglobulin (PD-1-Ig) and for PD-L1 it was the 6 histidine motif (PD-L1-His). All binding studies were performed in an HTRF assay buffer consisting of dPBS supplemented with 0.1% […] bovine serum albumin and 0.05% (v/v) Tween-20. For the h/PD-L1-His binding assay, inhibitors were pre-incubated with PD-L1-His (10 nM final) for 15 m in 4 μl of assay buffer, followed by addition of PD-1-Ig (20 nM final) in 1 μl of assay buffer and further incubation for 15 m. HTRF detection was achieved using europium cryptate-labeled anti-Ig (1 nM final) and allophycocyanin (APC) labeled anti-His (20 nM final). Antibodies were diluted in HTRF detection buffer and 5 μl was dispensed on top of the binding reaction. The reaction mixture was allowed to equilibrate for 30 minutes and the resulting signal (665 nm/620 nm ratio) was obtained using an EnVision fluorometer. Additional binding assays were established between the human proteins PD-1-Ig/PD-L2-His (20 & 5 nM, respectively) and CD80-His/PD-L1-Ig (100 & 10 nM, respectively).
Recombinant Proteins: Human PD-1 (25-167) with a C-terminal human Fc domain of immunoglobulin G (Ig) epitope tag [hPD-1 (25-167)-3S-IG] and human PD-L1 (18-239) with a C-terminal His epitope tag [hPD-L1(18-239)-TVMV-His] were expressed in HEK293T cells and purified sequentially by Protein A affinity chromatography and size exclusion chromatography. Human PD-L2-His and CD80-His was obtained through commercial sources.
Table 3 lists the IC50 values for representative examples of this disclosure measured in the PD-1/PD-L1 Homogenous Time-Resolved Fluorescence (HTRF) binding assay.

Structure (SMILES)	pIC50
CCCC[C@H]1C(=O)N(C)[C@@H](CCCC)C(=O)N[C@@H](CC(C)C)C(=O)N[C@H](C(=O)NCC(N)=O)CSCC(=O)N[C@@H](Cc2ccc(O)cc2)C(=O)N(C)[C@@H](C)C(=O)N[C@@H](CC(N)=O)C(=O)N2CCC[C@H]2C(=O)N[C@@H](CNC(=O)OC)C(=O)N[C@@H](CC(C)C)C(=O)N2C[C@H](O)C[C@H]2C(=O)N[C@@H](Cc2c[nH]c3ccccc23)C(=O)N[C@@H](CCNC(=O)OC)C(=O)N[C@@H](Cc2cn(CC(=O)OC)c3ccccc23)C(=O)N1C [Example 1017] ({CH2CO}-Y[NMeA]NP[Dap](Moc)L[Hyp]W[Dab](Moc)[Trp(1-CH2CO2Me)][NMeNle][NMeNle]LCG-NH2; thioether N-14)	8.23
CCCC[C@H]1C(=O)N(C)[C@@H](CCCC)C(=O)N[C@@H](CC(C)C)C(=O)N[C@H](C(=O)NCC(N)=O)CSCC(=O)N[C@@H](Cc2ccc(O)cc2)C(=O)N(C)[C@@H](C)C(=O)N[C@@H](CC(N)=O)C(=O)N2CCC[C@H]2C(=O)N[C@@H](CNC#N)C(=O)N[C@@H](CC(C)C)C(=O)N2C[C@H](O)C[C@H]2C(=O)N[C@@H](Cc2c[nH]c3ccccc23)C(=O)N[C@@H](CCNC#N)C(=O)N[C@@H](Cc2cn(CC(=O)OC)c3ccccc23)C(=O)N1C [Example 1020] ({CH2CO}-Y[NMeA]NP[X8]L[Hyp]W[X9][Trp(1-CH2CO2Me)][NMeNle][NMeNle]LCG-NH2; thioether N-14)	8.15
CCCC[C@H]1C(=O)N(C)[C@@H](CCCC)C(=O)N[C@@H](CC(C)C)C(=O)N[C@H](C(=O)NCC(N)=O)CSCC(=O)N[C@@H](Cc2ccc(O)cc2)C(=O)N(C)[C@@H](C)C(=O)N[C@@H](CC(N)=O)C(=O)N2CCC[C@H]2C(=O)N[C@@H](CNC#N)C(=O)N[C@@H](CC(C)C)C(=O)N2C[C@H](O)C[C@H]2C(=O)N[C@@H](Cc2c[nH]c3ccccc23)C(=O)N[C@@H](CCN)C(=O)N[C@@H](Cc2cn(CC(=O)O)c3ccccc23)C(=O)N1C [Example 1021] ({CH2CO}-Y[NMeA]NP[X8]L[Hyp]W[Dab][Trp(1-CH2COOH)][NMeNle][NMeNle]LCG-NH2; thioether N-14)	7.28
CCCC[C@H]1C(=O)N(C)[C@@H](CCCC)C(=O)N[C@@H](CC(C)C)C(=O)N[C@H](C(=O)NCC(N)=O)CSCC(=O)N[C@@H](Cc2ccc(O)cc2)C(=O)N(C)[C@@H](C)C(=O)N[C@@H](CC(N)=O)C(=O)N2CCC[C@H]2C(=O)N[C@@H](CNS(=O)(=O)N(C)C)C(=O)N[C@@H](CC(C)C)C(=O)N2C[C@H](O)C[C@H]2C(=O)N[C@@H](Cc2c[nH]c3ccccc23)C(=O)N[C@@H](CCNS(=O)(=O)N(C)C)C(=O)N[C@@H](Cc2cn(CC(=O)O)c3ccccc23)C(=O)N1C [Example 1022] ({CH2CO}-Y[NMeA]NP[X4]L[Hyp]W[X5][Trp(1-CH2COOH)][NMeNle][NMeNle]LCG-NH2; thioether N-14)	7.82
CCCC[C@H]1C(=O)N(C)[C@@H](CCCC)C(=O)N[C@@H](CC(C)C)C(=O)N[C@H](C(=O)NCC(N)=O)CSCC(=O)N[C@@H](Cc2ccc(O)cc2)C(=O)N(C)[C@@H](C)C(=O)N[C@@H](CC(N)=O)C(=O)N2CCC[C@H]2C(=O)N[C@@H](CNS(=O)(=O)N(C)C)C(=O)N[C@@H](CC(C)C)C(=O)N2C[C@H](O)C[C@H]2C(=O)N[C@@H](Cc2c[nH]c3ccccc23)C(=O)N[C@@H](CCN)C(=O)N[C@@H](Cc2cn(CC(=O)O)c3ccccc23)C(=O)N1C [Example 1023] ({CH2CO}-Y[NMeA]NP[X4]L[Hyp]W[Dab][Trp(1-CH2COOH)][NMeNle][NMeNle]LCG-NH2; thioether N-14)	8.17
CCCC[C@H]1C(=O)N(C)[C@@H](CCCC)C(=O)N[C@@H](CC(C)C)C(=O)N[C@H](C(=O)NCC(N)=O)CSCC(=O)N[C@@H](Cc2ccc(O)cc2)C(=O)N(C)[C@@H](C)C(=O)N[C@@H](CC(N)=O)C(=O)N2CCC[C@H]2C(=O)N[C@@H](CNC(=O)SC(C)(C)C)C(=O)N[C@@H](CC(C)C)C(=O)N2C[C@H](O)C[C@H]2C(=O)N[C@@H](Cc2c[nH]c3ccccc23)C(=O)N[C@@H](CCNC(=O)SC(C)(C)C)C(=O)N[C@@H](Cc2cn(CC(=O)OC)c3ccccc23)C(=O)N1C [Example 1025] ({CH2CO}-Y[NMeA]NP[Dap](X10)L[Hyp]W[Dab](X10)[Trp(1-CH2CO2Me)][NMeNle][NMeNle]LCG-NH2; thioether N-14)	8.22

Results, then the molecule that gave them:

pIC50	Structure (SMILES)
8.54	CCCC[C@H]1C(=O)N(C)[C@@H](CCCC)C(=O)N[C@@H](CC(C)C)C(=O)N[C@H](C(=O)NCC(N)=O)CSCC(=O)N[C@@H](Cc2ccc(O)cc2)C(=O)N(C)[C@@H](C)C(=O)N[C@@H](CC(N)=O)C(=O)N2CCC[C@H]2C(=O)N[C@@H](CNC(=O)OC(C)(C)C)C(=O)N[C@@H](CC(C)C)C(=O)N2C[C@H](O)C[C@H]2C(=O)N[C@@H](Cc2c[nH]c3ccccc23)C(=O)N[C@@H](CCNC(N)=O)C(=O)N[C@@H](Cc2cn(CC(=O)O)c3ccccc23)C(=O)N1C [Example 1018] ({CH2CO}-Y[NMeA]NP[Dap](Boc)L[Hyp]W[Dab(CONH2)][Trp(1-CH2COOH)][NMeNle][NMeNle]LCG-NH2; thioether N-14)
8.92	CCCC[C@H]1C(=O)N(C)[C@@H](CCCC)C(=O)N[C@@H](CC(C)C)C(=O)N[C@H](C(=O)NCC(N)=O)CSCC(=O)N[C@@H](Cc2ccc(O)cc2)C(=O)N(C)[C@@H](C)C(=O)N[C@@H](CC(N)=O)C(=O)N2CCC[C@H]2C(=O)N[C@@H](CNC#N)C(=O)N[C@@H](CC(C)C)C(=O)N2C[C@H](O)C[C@H]2C(=O)N[C@@H](Cc2c[nH]c3ccccc23)C(=O)N[C@@H](CCNC#N)C(=O)N[C@@H](Cc2cn(CC(=O)O)c3ccccc23)C(=O)N1C [Example 1019] ({CH2CO}-Y[NMeA]NP[X8]L[Hyp]W[X9][Trp(1-CH2COOH)][NMeNle][NMeNle]LCG-NH2; thioether N-14)
8.33	CCCC[C@H]1C(=O)N(C)[C@@H](CCCC)C(=O)N[C@@H](CC(C)C)C(=O)N[C@H](C(=O)NCC(N)=O)CSCC(=O)N[C@@H](Cc2ccc(O)cc2)C(=O)N(C)[C@@H](C)C(=O)N[C@@H](CC(N)=O)C(=O)N2CCC[C@H]2C(=O)N[C@@H](CNC(=O)SC(C)(C)C)C(=O)N[C@@H](CC(C)C)C(=O)N2C[C@H](O)C[C@H]2C(=O)N[C@@H](Cc2c[nH]c3ccccc23)C(=O)N[C@@H](CCNC(=O)OC)C(=O)N[C@@H](Cc2cn(CC(=O)O)c3ccccc23)C(=O)N1C [Example 1024] ({CH2CO}-Y[NMeA]NP[Dap](X10)L[Hyp]W[Dab](Moc)[Trp(1-CH2COOH)][NMeNle][NMeNle]LCG-NH2; thioether N-14)
8.35	CCCC[C@H]1C(=O)N(C)[C@@H](CCCC)C(=O)N[C@@H](CC(C)C)C(=O)N[C@H](C(=O)NCC(N)=O)CSCC(=O)N[C@@H](Cc2ccc(O)cc2)C(=O)N(C)[C@@H](C)C(=O)N[C@@H](CC(N)=O)C(=O)N2CCC[C@H]2C(=O)N[C@@H](CNC(=S)NCC)C(=O)N[C@@H](CC(C)C)C(=O)N2C[C@H](O)C[C@H]2C(=O)N[C@@H](Cc2c[nH]c3ccccc23)C(=O)N[C@@H](CCNC(=S)NCC)C(=O)N[C@@H](Cc2cn(CC(=O)O)c3ccccc23)C(=O)N1C [Example 1026] ({CH2CO}-Y[NMeA]NP[X14]L[Hyp]W[X15][Trp(1-CH2COOH)][NMeNle][NMeNle]LCG-NH2; thioether N-14)
